This passage reports IC50 and inhibition in vivo results from US8129417B2, “Substituted octahydrocyclopenta[C]pyrrol-4-amines as calcium channel blockers” (Abbott Laboratories, priority 2008, dated 2012).

Each structure is given as a SMILES string. pIC50: −log10 of the molar value.

The target in one assay is human Cav2.2 (Homo sapiens, UniProt Q00975). As to the kind of experiment: Assessment of calcium channel activity using FLIPR (Ca2+ influx in IMR32 cells). The settings on record: 60 minute pre-incubation with compound, 2 μM nifedipine, depolarized with 80 mM KCl. The format is cell-based. In outline:
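IC50 came from sigmoidal non-linear regression of percent inhibition, relative to uninhibited activity, across compound concentrations. Calcium influx was measured by FLIPR in IMR32 cells plated at 1-1.2×10^5 cells/well and cultured 48 h at 37 °C.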

The next assay concerns Sprague Dawley rats. Kind of assay: Capsaicin induced secondary mechanical hyperalgesia model. The format is in vivo. Conditions: po, 1 h, read-out: % inhibition @ 30 mg/kg p.o., 60 minutes before testing, secondary mechanical hyperalgesia 180 minutes after intraplantar capsaicin, rat. Here is the method: (ii) In Vivo Data—Capsaicin Induced Secondary Mechanical Hyperalgesia Model:
Sprague Dawley rats were briefly restrained, and capsaicin was administered at 10 μg in 10 μL of vehicle by intraplantar injection into the center of the right hind paw. Secondary mechanical hyperalgesia (SMH) was measured at the heel away from the site of injection 180 minutes following capsaicin exposure. Compounds and gabapentin (positive control), were administered p.o. 60 minutes before testing (2 hours after capsaicin) or i.p. 30 minutes before testing (2.5 hours after capsaicin). SMH was measured using calibrated von Frey filaments (Stoelting, Woodale, Ill.). Following the 1 hour habituation in the testing room, rats were moved to individual plexiglass chambers that sit on top of a wire mesh to allow for access for stimulation of the plantar surface of the hind paws. Rats were allowed to acclimate to the new chambers for 15 minutes before the onset of testing. The paw withdrawal threshold was determined by increasing and decreasing stimulus intensity (force: g) and calculated using Dixon's up-down method (Chaplan, S. R.; Bach, F. W.; Pogrel, J. W.; Chung, J. M.; Yaksh, T. L.; Quantitative assessment of tactile allodynia in the rat paw. J. Neuroscience Methods 1994, 53(1), 55-63.). The filaments (maximum force of 15.0 g) were held in place for 8 seconds or until there was a withdrawal response from the mechanical stimulation.

Sequence of human Cav2.2 (Q00975 whole entry): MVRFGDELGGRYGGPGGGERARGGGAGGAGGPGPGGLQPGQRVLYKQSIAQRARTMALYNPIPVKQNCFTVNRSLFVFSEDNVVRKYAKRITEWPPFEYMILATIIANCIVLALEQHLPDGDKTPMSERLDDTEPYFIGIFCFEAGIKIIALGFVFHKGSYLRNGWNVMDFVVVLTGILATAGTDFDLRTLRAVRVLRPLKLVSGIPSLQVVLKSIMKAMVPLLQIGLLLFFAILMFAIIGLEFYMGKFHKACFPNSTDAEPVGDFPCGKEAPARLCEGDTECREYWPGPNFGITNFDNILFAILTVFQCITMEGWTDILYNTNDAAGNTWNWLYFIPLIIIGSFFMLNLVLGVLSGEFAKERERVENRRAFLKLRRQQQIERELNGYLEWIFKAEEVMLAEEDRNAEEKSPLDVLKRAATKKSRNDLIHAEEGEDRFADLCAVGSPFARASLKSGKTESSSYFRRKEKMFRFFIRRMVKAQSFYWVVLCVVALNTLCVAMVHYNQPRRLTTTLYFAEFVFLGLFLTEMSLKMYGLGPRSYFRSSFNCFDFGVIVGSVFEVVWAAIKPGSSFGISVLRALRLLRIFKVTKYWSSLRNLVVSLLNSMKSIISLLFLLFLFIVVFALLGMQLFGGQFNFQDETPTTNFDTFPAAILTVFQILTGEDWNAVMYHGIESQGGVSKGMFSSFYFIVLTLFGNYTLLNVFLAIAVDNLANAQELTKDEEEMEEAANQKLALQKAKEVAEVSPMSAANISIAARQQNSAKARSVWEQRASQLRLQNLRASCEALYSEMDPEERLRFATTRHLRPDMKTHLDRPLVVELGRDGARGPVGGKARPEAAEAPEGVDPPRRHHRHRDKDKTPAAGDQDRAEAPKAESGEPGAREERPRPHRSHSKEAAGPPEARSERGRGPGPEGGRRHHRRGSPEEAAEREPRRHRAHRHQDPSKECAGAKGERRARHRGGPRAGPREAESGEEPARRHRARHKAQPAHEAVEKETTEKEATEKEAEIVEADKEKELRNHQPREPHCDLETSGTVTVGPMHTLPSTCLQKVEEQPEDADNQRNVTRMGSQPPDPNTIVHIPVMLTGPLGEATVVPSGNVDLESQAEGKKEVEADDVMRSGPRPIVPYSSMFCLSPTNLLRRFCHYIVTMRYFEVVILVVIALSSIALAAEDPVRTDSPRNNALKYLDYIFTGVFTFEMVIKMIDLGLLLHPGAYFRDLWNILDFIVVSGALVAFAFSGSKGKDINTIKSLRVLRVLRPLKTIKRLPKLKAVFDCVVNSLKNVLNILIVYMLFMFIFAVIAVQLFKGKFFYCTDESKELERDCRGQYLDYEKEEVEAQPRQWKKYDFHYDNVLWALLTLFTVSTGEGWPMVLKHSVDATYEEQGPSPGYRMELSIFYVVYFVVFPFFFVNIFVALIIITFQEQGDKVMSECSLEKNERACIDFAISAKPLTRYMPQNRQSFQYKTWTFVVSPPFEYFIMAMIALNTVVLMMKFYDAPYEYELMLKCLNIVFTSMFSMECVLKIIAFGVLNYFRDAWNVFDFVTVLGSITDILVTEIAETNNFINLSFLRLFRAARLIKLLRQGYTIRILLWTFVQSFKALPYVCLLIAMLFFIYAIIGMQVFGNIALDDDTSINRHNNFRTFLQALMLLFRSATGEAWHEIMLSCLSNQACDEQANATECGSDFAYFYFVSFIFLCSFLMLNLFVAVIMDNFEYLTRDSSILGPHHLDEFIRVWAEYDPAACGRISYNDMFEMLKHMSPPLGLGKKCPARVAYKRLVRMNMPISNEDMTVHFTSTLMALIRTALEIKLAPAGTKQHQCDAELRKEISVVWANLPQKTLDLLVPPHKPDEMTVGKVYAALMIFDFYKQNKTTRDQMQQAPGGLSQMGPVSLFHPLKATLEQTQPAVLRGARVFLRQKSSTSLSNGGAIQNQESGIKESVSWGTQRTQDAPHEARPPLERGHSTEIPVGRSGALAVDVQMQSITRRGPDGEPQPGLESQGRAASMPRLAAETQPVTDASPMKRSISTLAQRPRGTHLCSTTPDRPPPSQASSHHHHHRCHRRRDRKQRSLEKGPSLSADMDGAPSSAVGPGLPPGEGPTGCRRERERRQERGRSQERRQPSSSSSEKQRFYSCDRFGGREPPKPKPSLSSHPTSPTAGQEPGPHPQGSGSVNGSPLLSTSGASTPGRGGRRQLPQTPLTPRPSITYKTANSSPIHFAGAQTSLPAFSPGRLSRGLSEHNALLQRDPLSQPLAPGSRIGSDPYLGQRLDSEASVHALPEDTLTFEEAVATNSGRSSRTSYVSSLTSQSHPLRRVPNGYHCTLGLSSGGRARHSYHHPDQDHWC
Sequence of human Cav2.2 (P54289 25-946 partner limits assumed): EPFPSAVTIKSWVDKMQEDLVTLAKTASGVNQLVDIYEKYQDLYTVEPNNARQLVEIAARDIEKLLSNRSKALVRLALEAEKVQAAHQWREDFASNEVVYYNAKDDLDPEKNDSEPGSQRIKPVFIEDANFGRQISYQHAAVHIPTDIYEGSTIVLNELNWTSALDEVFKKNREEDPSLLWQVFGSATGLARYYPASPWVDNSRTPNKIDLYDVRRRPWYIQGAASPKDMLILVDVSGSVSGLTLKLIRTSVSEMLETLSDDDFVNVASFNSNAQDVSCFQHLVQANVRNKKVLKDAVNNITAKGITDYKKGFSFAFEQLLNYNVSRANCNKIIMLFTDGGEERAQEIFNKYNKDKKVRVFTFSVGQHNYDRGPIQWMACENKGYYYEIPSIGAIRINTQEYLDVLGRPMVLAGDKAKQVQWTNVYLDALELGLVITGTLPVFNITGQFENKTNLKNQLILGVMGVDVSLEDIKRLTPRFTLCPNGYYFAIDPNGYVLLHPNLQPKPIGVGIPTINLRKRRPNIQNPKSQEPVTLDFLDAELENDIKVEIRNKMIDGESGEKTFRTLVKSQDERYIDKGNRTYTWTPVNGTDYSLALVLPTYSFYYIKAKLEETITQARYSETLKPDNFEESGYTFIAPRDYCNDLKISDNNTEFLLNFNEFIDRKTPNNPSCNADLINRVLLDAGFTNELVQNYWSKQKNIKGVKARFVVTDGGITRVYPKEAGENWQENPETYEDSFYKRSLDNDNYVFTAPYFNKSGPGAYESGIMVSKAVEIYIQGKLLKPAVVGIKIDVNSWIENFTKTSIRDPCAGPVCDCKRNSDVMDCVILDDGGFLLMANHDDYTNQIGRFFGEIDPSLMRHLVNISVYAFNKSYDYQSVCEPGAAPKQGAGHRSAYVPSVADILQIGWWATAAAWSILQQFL
Sequence of human Cav2.2 (P54289 947-1103 partner limits assumed): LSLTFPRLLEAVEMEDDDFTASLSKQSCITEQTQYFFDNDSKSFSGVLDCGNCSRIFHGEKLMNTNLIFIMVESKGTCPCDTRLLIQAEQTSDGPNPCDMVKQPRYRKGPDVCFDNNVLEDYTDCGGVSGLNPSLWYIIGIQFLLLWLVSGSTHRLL
Sequence of human Cav2.2 (P54284 whole entry partner): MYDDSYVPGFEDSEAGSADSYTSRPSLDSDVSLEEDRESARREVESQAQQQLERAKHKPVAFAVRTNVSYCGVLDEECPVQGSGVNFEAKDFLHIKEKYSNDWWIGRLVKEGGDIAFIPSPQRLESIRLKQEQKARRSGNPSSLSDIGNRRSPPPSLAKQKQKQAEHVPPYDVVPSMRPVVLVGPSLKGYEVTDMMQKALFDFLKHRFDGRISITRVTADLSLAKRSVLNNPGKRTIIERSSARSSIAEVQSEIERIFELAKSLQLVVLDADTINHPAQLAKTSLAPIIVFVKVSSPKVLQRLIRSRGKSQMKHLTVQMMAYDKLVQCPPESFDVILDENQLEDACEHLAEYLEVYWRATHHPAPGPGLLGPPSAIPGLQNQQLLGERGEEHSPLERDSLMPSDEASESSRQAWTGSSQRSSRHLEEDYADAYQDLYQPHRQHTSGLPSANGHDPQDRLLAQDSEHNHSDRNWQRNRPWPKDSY

With `O=C(N[C@H]1CC[C@H]2CN(Cc3cccc(C(F)(F)F)c3)C[C@H]21)C(C1CCCCC1)C1CCCCC1` [Example 54, 2,2-dicyclohexyl-N-{(3aS,4S,6aR)-2-[3-(trifluoromethyl)benzyl]octahydrocyclopenta[c]pyrrol-4-yl}acetamide], the pIC50 (in general, the negative decadic logarithm of the IC50, by convention in mol/L) at human Cav2.2 was 6.30. Moreover, in the assay on Sprague Dawley rats, the inhibition in vivo at 30 mg/kg was 38%. In the case of `O=C(N[C@@H]1CC[C@H]2CN(Cc3cccc(C(F)(F)F)c3)C[C@H]21)C(C1CCCCC1)C1CCCCC1` [Example 75, 2,2-dicyclohexyl-N-{(3aS,4R,6aR)-2-[3-(trifluoromethyl)benzyl]octahydrocyclopenta[c]pyrrol-4-yl}acetamide], the pIC50 on human Cav2.2 is 6.30. Moreover, in the assay on Sprague Dawley rats, the inhibition in vivo at 30 mg/kg was determined as 85%. As for `O=C(N[C@H]1CC[C@@H]2CN(Cc3cccc(C(F)(F)F)c3)C[C@@H]21)C(C1CCCCC1)C1CCCCC1` [Example 156, 2,2-dicyclohexyl-N-{(3aR,4S,6aS)-2-[3-(trifluoromethyl)benzyl]octahydrocyclopenta[c]pyrrol-4-yl}acetamide], on human Cav2.2, the pIC50 is 6.10. Besides, in the assay with Sprague Dawley rats, the inhibition in vivo at 30 mg/kg amounted to 67%.

As to `O=C(N[C@@H]1CC[C@@H]2CN(Cc3cccc(C(F)(F)F)c3)C[C@@H]21)C(C1CCCCC1)C1CCCCC1` [Example 157, 2,2-dicyclohexyl-N-{(3aR,4R,6aS)-2-[3-(trifluoromethyl)benzyl]octahydrocyclopenta[c]pyrrol-4-yl}acetamide], the pIC50 at human Cav2.2 was 5.68. The inhibition in vivo at 30 mg/kg with Sprague Dawley rats is 57%.

Take `CN[C@@H](CC(C)C)C(=O)N[C@@H]1CC[C@H]2CN(Cc3ccccc3)C[C@H]21` [Example 165, N^1-[(3aS,4R,6aR)-2-benzyloctahydrocyclopenta[c]pyrrol-4-yl]-N^2-methyl-L-leucinamide]: on human Cav2.2, the pIC50 was 4.48. Moreover, in the assay with Sprague Dawley rats, the inhibition in vivo at 30 mg/kg is 92%. With `CN[C@@H](CC(C)C)C(=O)N[C@@H]1CC[C@H]2CN(S(=O)(=O)c3ccc(C(F)(F)F)cc3)C[C@H]21` [Example 183, N^2-methyl-N^1-((3aS,4R,6aR)-2-{[4-(trifluoromethyl)phenyl]sulfonyl}octahydrocyclopenta[c]pyrrol-4-yl)-L-leucinamide], the inhibition in vivo at 30 mg/kg in the assay on Sprague Dawley rats was found to be 78%. Consider `CC(C)C[C@@H](C(=O)N[C@@H]1CC[C@H]2CN(Cc3ccccc3)C[C@H]21)N1CCCS1(=O)=O` [Example 220, (2S)—N-[(3aS,4R,6aR)-2-benzyloctahydrocyclopenta[c]pyrrol-4-yl]-2-(1,1-dioxidoisothiazolidin-2-yl)-4-methylpentanamide], for which, on human Cav2.2, the pIC50 was less than 5.05. Also, the inhibition in vivo at 30 mg/kg with Sprague Dawley rats amounted to 76%.

For the molecule `CCC[C@H](NC(=O)OC(C)C)C(=O)N[C@H]1CC[C@@H]2CN(Cc3ccc(C(F)(F)F)cc3)C[C@@H]21` [Example 280, isopropyl(S)-1-oxo-1-((3aR,4S,6aS)-2-(4-(trifluoromethyl)benzyl)octahydrocyclopenta[c]pyrrol-4-ylamino)pentan-2-ylcarbamate], the pIC50 at human Cav2.2 was 5.30. In addition, the inhibition in vivo at 30 mg/kg in the assay on Sprague Dawley rats was found to be 38%. As to `CCC[C@H](NC)C(=O)N[C@H]1CC[C@@H]2CN(S(=O)(=O)c3ccc(C(F)(F)F)cc3)C[C@@H]21` [Example 405, N^2-methyl-N^1-((3aR,4S,6aS)-2-{[4-(trifluoromethyl)phenyl]sulfonyl}octahydrocyclopenta[c]pyrrol-4-yl)-L-norvalinamide], the inhibition in vivo at 30 mg/kg in the assay with Sprague Dawley rats was determined as 32%. Consider `CN[C@@H](CC(C)(C)C)C(=O)N[C@H]1CC[C@@H]2CN(S(=O)(=O)c3ccc(C(F)(F)F)cc3)C[C@@H]21` [Example 415, N^2,4-dimethyl-N^1-((3aR,4S,6aS)-2-{[4-(trifluoromethyl)phenyl]sulfonyl}octahydrocyclopenta[c]pyrrol-4-yl)-L-leucinamide], for which the pIC50 at human Cav2.2 is 5.53. The inhibition in vivo at 30 mg/kg with Sprague Dawley rats is 52%. Consider `CC(C)(C)C[C@H](NCC1CC1)C(=O)N[C@H]1CC[C@@H]2CN(c3ccc(C(F)(F)F)cn3)C[C@@H]21` [Example 478, N^2-(cyclopropylmethyl)-4-methyl-N^1-{(3aR,4S,6aS)-2-[5-(trifluoromethyl)pyridin-2-yl]octahydrocyclopenta[c]pyrrol-4-yl}-L-leucinamide], for which the pIC50 on human Cav2.2 was 6.12. Moreover, in the assay on Sprague Dawley rats, the inhibition in vivo at 30 mg/kg is 57%. For `CC(C)(C)C[C@H](NCC1CC1)C(=O)N[C@H]1CC[C@@H]2CN(c3cccc(C(F)(F)F)n3)C[C@@H]21` [Example 479, N^2-(cyclopropylmethyl)-4-methyl-N^1-{(3aR,4S,6aS)-2-[6-(trifluoromethyl)pyridin-2-yl]octahydrocyclopenta[c]pyrrol-4-yl}-L-leucinamide], the inhibition in vivo at 30 mg/kg in the assay on Sprague Dawley rats worked out at 40%.

Turning to `CC(C)N[C@@H](CC(C)(C)C)C(=O)N[C@H]1CC[C@@H]2CN(C(=O)[C@H](CC(C)(C)C)NC(C)C)C[C@@H]21` [Example 488, N^2-isopropyl-N^1-[(3aR,4S,6aS)-2-(N-isopropyl-4-methyl-L-leucyl)octahydrocyclopenta[c]pyrrol-4-yl]-4-methyl-L-leucinamide], the pIC50 on human Cav2.2 is 5.13. The inhibition in vivo at 30 mg/kg in the assay with Sprague Dawley rats worked out at 55%.

For the molecule `CC(C)N[C@@H](CC(C)(C)C)C(=O)N[C@H]1CC[C@@H]2CN(C(=O)[C@H](Cc3ccccc3)NC(C)C)C[C@@H]21` [Example 489, N^2-isopropyl-N^1-[(3aR,4S,6aS)-2-(N-isopropyl-L-phenylalanyl)octahydrocyclopenta[c]pyrrol-4-yl]-4-methyl-L-leucinamide], the pIC50 on human Cav2.2 is 5.01. In addition, the inhibition in vivo at 30 mg/kg with Sprague Dawley rats was 47%. In the case of `O=C(N[C@H]1CC[C@@H]2CN(c3cccc(C(F)(F)F)n3)C[C@@H]21)c1ccc(F)cc1` [Example 560, 4-fluoro-N-{(3aR,4S,6aS)-2-[6-(trifluoromethyl)pyridin-2-yl]octahydrocyclopenta[c]pyrrol-4-yl}benzamide], the pIC50 at human Cav2.2 is 5.84. Moreover, the inhibition in vivo at 30 mg/kg with Sprague Dawley rats was 42%.
